ChEMBL document CHEMBL1201862, “PubChem BioAssay data set” (2004)
Active and inactive are the calls of the source.

Assays:
[1] = target: T1, DNA repair and recombination protein RAD54-like (Homo sapiens, UniProt Q92698); experiment: inhibitors of human RAD54 branch migration, confirmation, biochemical, fluorescence, cherry-picked samples, dose series (AID 651657); assay type: functional
T1 sequence (Q92698 whole entry): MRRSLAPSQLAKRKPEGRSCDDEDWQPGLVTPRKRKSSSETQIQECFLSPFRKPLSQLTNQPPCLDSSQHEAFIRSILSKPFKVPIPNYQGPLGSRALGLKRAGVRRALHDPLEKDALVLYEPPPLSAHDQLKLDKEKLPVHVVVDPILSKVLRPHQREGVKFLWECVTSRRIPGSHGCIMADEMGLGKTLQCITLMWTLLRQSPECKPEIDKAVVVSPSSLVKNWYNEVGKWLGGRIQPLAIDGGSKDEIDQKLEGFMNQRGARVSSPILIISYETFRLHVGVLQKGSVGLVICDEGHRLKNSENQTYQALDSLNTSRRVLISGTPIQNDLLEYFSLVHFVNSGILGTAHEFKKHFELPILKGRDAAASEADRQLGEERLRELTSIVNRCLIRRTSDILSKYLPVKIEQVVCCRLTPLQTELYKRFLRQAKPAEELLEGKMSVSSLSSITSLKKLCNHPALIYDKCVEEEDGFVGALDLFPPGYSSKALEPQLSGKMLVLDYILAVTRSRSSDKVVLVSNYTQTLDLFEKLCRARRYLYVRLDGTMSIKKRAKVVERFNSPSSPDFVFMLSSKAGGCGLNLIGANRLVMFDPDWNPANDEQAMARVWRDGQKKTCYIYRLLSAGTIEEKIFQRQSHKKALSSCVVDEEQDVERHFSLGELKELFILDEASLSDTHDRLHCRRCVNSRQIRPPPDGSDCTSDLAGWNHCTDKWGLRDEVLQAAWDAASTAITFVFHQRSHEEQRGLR

[2] = Luminescence Cell-Based Dose Confirmation HTS to Identify Activators of 5'UTR Stem-Loop Driven Alpha-Synuclein mRNA Translation in H4 Neuroglioblastoma Cells. [Related pubchem assays: 1829 (Project Summary), 1814 (Primary HTS)]; assay type: functional
[3] = Luminescence Cell-Based Dose Response HTS to Identify Activators of Luciferase Translation or Activity in H4 […] Cells. [Related pubchem assays: 1829 (Project Summary), 1814 (Primary HTS)]; assay type: functional
H4 = experiment: Luminescence Cell-Based Dose Response HTS to Identify Activators of 5'UTR Stem-Loop Driven Prion Protein mRNA Translation in H4 Neuroglioblastoma Cells. [Related pubchem assays: 1829 (Project Summary), 1814 (Primary HTS)]; assay type: functional; conditions: Homo sapiens
[4] = inhibitors of intracellular T. cruzi replication, confirmation, NIH3T3 host cells, beta-gal luminescence (AID 2044); assay type: functional, cell-based;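 also: intracellular parasites grown in NIH/3T3 mouse fibroblasts as host cells; luminescent beta-galactosidase reporter signal from transgenic T. cruzi replicating inside host cells; inhibitors lower the luminescence signal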
[5] = cytotoxicity toward NIH3T3 fibroblasts, dose response, counter-screen, cell-based, ATP luminescence, mouse fibroblasts (AID 2010); assay type: functional;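 also: cells exposed to compound for about 90 hours before reading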
[6] = target: T2, Replicative DNA helicase DnaB (Mycobacterium tuberculosis, UniProt P9WMR3); experiment: DnaB intein splicing inhibitors, dose response, biochemical, cell-free fluorescence (AID 449749); assay type: functional
T2 sequence (P9WMR3 whole entry): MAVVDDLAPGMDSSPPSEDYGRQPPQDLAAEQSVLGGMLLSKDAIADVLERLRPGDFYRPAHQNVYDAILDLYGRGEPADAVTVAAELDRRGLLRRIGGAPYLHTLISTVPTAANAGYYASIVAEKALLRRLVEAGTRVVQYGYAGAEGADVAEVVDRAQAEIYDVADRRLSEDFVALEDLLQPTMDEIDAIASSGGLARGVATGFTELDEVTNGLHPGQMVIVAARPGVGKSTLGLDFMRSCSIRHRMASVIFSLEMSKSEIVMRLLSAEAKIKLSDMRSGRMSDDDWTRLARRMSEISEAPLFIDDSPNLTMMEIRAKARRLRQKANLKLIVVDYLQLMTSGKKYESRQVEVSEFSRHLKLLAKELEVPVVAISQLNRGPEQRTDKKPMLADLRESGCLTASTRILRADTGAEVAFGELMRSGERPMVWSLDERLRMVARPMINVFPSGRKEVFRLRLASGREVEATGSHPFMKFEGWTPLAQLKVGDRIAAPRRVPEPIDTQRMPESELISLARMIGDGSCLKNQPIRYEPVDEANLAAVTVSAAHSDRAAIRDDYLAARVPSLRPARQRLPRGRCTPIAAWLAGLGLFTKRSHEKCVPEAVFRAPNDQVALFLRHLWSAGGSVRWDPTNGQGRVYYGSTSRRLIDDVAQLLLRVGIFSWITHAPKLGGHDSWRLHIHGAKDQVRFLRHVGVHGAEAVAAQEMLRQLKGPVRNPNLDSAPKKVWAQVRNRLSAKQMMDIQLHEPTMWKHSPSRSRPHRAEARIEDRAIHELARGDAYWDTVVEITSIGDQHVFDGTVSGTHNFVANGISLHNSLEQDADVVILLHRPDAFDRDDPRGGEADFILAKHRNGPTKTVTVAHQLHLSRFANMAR

Protein RecA = target: T3, Protein RecA (Mycobacterium tuberculosis, UniProt P9WHJ3); experiment: Fluorescence Cell-Free Homogeneous Dose Retest to Identify Inhibitors of RecA-Intein Splicing Activity. [Related pubchem assays (depositor defined):AID2097, AID2223, AID489010, AID492950]; assay type: functional
T3 sequence (P9WHJ3 whole entry): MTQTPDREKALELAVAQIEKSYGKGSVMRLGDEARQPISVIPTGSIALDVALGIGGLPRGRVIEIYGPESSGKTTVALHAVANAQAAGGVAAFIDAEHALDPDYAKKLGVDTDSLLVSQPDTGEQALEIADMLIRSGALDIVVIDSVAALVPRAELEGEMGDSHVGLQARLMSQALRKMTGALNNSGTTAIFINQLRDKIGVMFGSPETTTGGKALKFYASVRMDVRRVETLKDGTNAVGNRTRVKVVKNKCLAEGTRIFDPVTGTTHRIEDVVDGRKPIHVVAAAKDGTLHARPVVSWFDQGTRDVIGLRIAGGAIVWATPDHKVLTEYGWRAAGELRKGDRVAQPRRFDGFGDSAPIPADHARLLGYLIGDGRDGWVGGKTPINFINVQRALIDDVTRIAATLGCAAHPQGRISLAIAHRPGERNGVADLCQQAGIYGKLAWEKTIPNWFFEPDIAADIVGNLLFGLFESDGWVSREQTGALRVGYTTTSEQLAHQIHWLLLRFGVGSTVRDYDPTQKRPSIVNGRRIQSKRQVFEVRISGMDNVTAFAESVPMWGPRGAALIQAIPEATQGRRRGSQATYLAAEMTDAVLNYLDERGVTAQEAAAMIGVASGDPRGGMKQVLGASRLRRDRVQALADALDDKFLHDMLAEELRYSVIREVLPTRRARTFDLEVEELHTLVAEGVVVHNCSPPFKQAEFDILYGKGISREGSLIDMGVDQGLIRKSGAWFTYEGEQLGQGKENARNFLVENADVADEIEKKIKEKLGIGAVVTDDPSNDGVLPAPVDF

[7] = inhibitors of PGC1a acetylation in cells, dose response, cell-based, cherry-picked samples (AID 720514); assay type: functional;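 also: potency may reflect raised or lowered acetylation signal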
[8] = A549 cell cytotoxicity, dose response, cytotoxicity control, plate reader, cherry-pick, antagonist series (AID 743412); assay type: functional, cell-based
[9] = HepG2 cell cytotoxicity, dose response, cytotoxicity control, plate reader, cherry-pick, antagonist series (AID 743416); assay type: functional, cell-based
[10] = LGR2 antagonists, dose response, cell-based, HEK293, CRE-luciferase reporter, cherry pick, set 2 (AID 743343); assay type: functional;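 also: transfected cells were stimulated with diluted bursicon conditioned medium after compound addition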
[11] = MC4R antagonists, dose response, counter-screen for LGR2 antagonist project, cell-based, plate reader, cherry pick (AID 743444); assay type: functional;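 also: transfected HEK 293 cells stimulated with alpha-MSH peptide; potency of inhibitors of the alpha-MSH evoked signal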
[12] = HEK293 cell cytotoxicity, dose response, cytotoxicity control, plate reader, cherry-picked samples (AID 743446); assay type: functional, cell-based
[13] = inhibitors of HIV Env-driven cell fusion, dose response, cherry-pick (AID 652057); assay type: functional, cell-based
[14] = ZM109 Env clade C HIV-1 fusion inhibitors, dose response, HeLa effector, CEM target cells, luciferase, cherry-pick (AID 652058); assay type: functional, cell-based
[15] = off-target signal loss in HeLa-CEM21 co-culture – HeLa F-luc CTL cells, cherry-picked, counter-screen for HIV-1 Env fusion inhibitor project, dose response (AID 652040); assay type: functional, cell-based;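 also: potency for signal decrease marking cytotoxic or nonspecific inhibition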
[16] = inhibitors of clade B AD8 Env fusion, dose response, cell-based, cherry-pick (AID 652062); assay type: functional;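 also: luciferase signal from cell-cell fusion driven by HIV-1 clade B AD8 Env; potency is for inhibitors of fusion seen as a drop in luminescence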
[17] = HeLa cell cytotoxicity, dose response, cytotoxicity control for MgcRacGAP inhibitor project (AID 624300); assay type: functional
[18] = target: T4, Rac GTPase-activating protein 1 (Homo sapiens, UniProt Q9H0H5); experiment: MgcRacGAP GTPase-activating activity inhibitors, confirmation, biochemical, ADP Hunter fluorescence, primary and confirmatory (AID 624330); assay type: functional
T4 sequence (Q9H0H5 whole entry): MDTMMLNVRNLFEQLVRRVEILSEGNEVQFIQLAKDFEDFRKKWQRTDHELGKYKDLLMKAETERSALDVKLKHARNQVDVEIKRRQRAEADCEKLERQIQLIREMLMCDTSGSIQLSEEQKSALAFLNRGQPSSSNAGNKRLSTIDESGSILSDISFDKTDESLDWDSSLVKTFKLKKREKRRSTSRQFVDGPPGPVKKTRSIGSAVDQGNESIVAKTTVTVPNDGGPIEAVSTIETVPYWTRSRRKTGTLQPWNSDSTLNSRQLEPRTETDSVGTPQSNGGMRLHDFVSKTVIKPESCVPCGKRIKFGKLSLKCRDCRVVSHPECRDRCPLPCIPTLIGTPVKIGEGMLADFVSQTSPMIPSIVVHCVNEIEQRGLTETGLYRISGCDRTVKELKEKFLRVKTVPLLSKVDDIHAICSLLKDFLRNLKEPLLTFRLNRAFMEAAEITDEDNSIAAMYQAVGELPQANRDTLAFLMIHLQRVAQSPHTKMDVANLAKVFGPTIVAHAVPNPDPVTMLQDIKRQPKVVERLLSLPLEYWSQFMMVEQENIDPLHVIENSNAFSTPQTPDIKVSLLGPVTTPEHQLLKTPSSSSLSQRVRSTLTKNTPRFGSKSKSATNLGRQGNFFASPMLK

BJ [19] = experiment: cytotoxicity toward BJ-TERT fibroblasts, dose response, cell-based, RAS-independent, luminescence (AID 1933); assay type: functional; conditions: Homo sapiens
BJ [20] = experiment: cells; assay type: functional, cell-based; conditions: Homo sapiens
BJ [21] = experiment: cytotoxicity toward BJ-TERT-LT-ST fibroblasts, dose response, cell-based, RAS-independent, luminescence (AID 1935); assay type: functional; conditions: Homo sapiens;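 also: BJ fibroblasts immortalized with TERT plus LT and ST oncogenes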
[22] = cytotoxicity toward DRD oncogenic fibroblasts, dose response, cell-based, non-viral oncogenic, luminescence (AID 1934); assay type: functional; conditions: Homo sapiens
[23] = target: T5, DNA repair protein RAD52 homolog (Homo sapiens, UniProt P43351); assay type: functional, biochemical
T5 sequence (P43351 whole entry): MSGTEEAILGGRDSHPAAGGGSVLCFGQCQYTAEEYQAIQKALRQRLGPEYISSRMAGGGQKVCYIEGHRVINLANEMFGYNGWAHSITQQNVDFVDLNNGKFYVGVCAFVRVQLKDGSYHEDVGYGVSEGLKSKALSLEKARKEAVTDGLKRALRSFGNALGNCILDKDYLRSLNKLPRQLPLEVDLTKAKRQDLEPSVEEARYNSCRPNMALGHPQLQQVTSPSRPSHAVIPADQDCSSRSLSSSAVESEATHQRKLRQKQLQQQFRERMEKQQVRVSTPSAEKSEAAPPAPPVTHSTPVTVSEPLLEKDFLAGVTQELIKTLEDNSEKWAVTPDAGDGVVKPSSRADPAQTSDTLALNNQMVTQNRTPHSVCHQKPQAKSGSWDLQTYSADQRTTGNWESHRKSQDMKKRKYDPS

[24] = target: FAD-linked sulfhydryl oxidase ALR (Homo sapiens, UniProt P55789); experiment: inhibitors of human ALR sulfhydryl oxidase, dose response, biochemical, H2O2 detection, luminescence, cherry-pick (AID 493248)
Chain of FAD-linked sulfhydryl oxidase ALR (P55789 whole entry): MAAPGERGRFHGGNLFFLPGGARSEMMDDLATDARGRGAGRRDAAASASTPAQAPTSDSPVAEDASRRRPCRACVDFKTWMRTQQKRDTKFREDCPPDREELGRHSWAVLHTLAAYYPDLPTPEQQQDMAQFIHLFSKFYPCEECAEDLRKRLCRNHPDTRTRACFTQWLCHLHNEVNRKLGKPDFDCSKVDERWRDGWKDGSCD

Cc1ccc2oc(=O)c3cc(C(=O)NCCCN4CCN(C)CC4)sc3c2c1
active: AC50 [1] 34 µM

O=c1c(Cl)c(Cl)cnn1Cc1nnc(-c2ccc(Cl)cc2)o1
> 120 µM (not active): EC50 [2] | EC50 [3] | EC50 (H4)
active: EC50 [4] 1.15 µM | EC50 [5] 2.02 µM | AC50 [6] 9.97 µM | EC50 (Protein RecA) 2.95 µM | AC50 [7] 7.83 µM | AC50 [8] 7.33 µM | AC50 [9] 8.01 µM | AC50 [10] 25.3 µM | AC50 [11] 30.9 µM | AC50 [12] 8.16 µM

C[C@@H]1CNC(=O)c2c(C(=O)N(C)Cc3ccccc3)ncn21
active: AC50 [13] 1.86 µM | AC50 [14] 4.8 µM | AC50 [15] 3.39 µM | AC50 [16] 3.68 µM

Cc1ccc(S(=O)(=O)c2cc(Nc3ccccc3)ccc2O)cc1
active: CC50 [17] 100 µM | IC50 [18] 48.9 µM

C=CCN(C(=O)C1CC(=O)N(C2CCCC2)C1)c1nc(-c2ccc(S(C)(=O)=O)cc2)cs1 (stereo not drawn)
active: AC50 [8] 36.7 µM | AC50 [10] 25.8 µM | AC50 [11] 41.5 µM | AC50 [12] 30.1 µM
inactive: AC50 [9] > 52 µM

COc1cc(OC)cc(C(=O)NNC(=O)C2CCCC2)c1
> 150 µM (not active): EC50 (BJ [19]) | EC50 (BJ [20]) | EC50 (BJ [21]) | EC50 [22]

O=S(=O)(c1ccccc1Cl)N1CCCC1c1nc(-c2ccc(Cl)cc2)no1 (stereo not drawn)
active: AC50 [13] 1.99 µM | AC50 [15] 60.9 µM | AC50 [16] 14.8 µM

C[N+](C)(C)CCC(=O)N1C/C(=C/c2ccccc2)C(=O)/C(=C\c2ccccc2)C1
active: CC50 [17] 100 µM | IC50 [18] 128 µM

CN(C)c1ccc2c(c1)C(=NO)c1ccccc1-2
active: CC50 [17] 100 µM | IC50 [18] 33.5 µM

CN1CCCN(c2cc(-c3ccc4ccccc4c3)nc3ccnn23)CC1
active: AC50 [1] 8.49 µM | AC50 [23] 1.57 µM

COc1ccc(-c2c[nH]nc2N)c(OC)c1
active: AC50 [24] 0.411 µM | AC50 [13] 3.7 µM | AC50 [14] 32.5 µM | AC50 [15] 20 µM | AC50 [16] 4.98 µM
